Assay [1] concerns OMP25–msGFP–HaloTag fusion protein in HEK293T cells. Nature of the assay: Pulse–chase HaloTag labeling efficiency, SDS–PAGE/in-gel fluorescence. Format: cell-based. Conditions: 2 h, mean ± SEM. The method, then:
PBS, 2% (v/v) SDS, 1% (v/v) Triton x-100, 10 mM EDTA, and protease inhibitors (2 mM PMSF, aprotinin, leupeptin, and pepstatin A). Samples were then incubated at 50 °C for 3–4 min after the addition of Laemmli sample buffer (SB; Bio-Rad, 1610747) with β-mercaptoethanol (Bio-Rad, 1610710). For protein detection, 10–20 µL of the sample was subjected to SDS-PAGE, using 10% Tris-Glycine gels (TGX) (Bio-Rad, 5671034) with Tris-Glycine buffer (Bio-Rad, 1610732). […]
Quantification of HaloTag labeling efficiency using in-gel fluorescence. HEK293T cells were cultured, incubated and transfected with pF(UG) hSyn HaloTag-TEV-4×GS-msGFP-mito using lipofectamine LTX reagent as described above. To examine saturation of HaloTag, we screened for fluorescence plateau using 1 μM of JF479-HaloTag ligand,4 JF549-HaloTag ligand (2HTL) and […]
(2HTL) and JF608-HaloTag ligand (3HTL) reached a fluorescence plateau, and they were chosen as saturating counter stains or “chase” dyes for examining the labeling efficiency of biotin-JF-HaloTag ligands (13HTL–16HTL). Next, we developed an in-gel assay to independently quantitate labeling efficiencies of 13HTL–16HTL. We used JF549-HaloTag ligand (2HTL) as chase for evaluating biotin-JF608-HaloTag ligand (14HTL), biotin-JF646-HaloTag ligand (15HTL), and biotin-JF635-HaloTag ligand (16HTL). We used JF608-HaloTag ligand (3HTL) as chase for evaluating biotin-JF549-HaloTag ligand (13HTL). Each experiment consisted of testing the biotin variants 13HTL–16HTL at 100 nM and 1 μM with an incubation time of 2 h and a chase labeling incubation of 1 μM for 0.5 h. The 0.5 h chase labeling period was included with the 2 h total incubation. Each experiment consisted of the following conditions: untransfected cells; (A) transduced, but no dye; (B) non-biotinylated variant of primary label at 1 μM for 0.5 h; (C) the nonbiotinylated version of the chase JF dye at 1 μM for 0.5 h; (D) 100 nM of the nonbiotinylated version of the primary label for 2 h; (E) 100 nM of the biotinylated version of primary label for 2 h; (F) 1 μM of the nonbiotinylated version of the primary label for 2 h; (G) 1 μM of the biotinylated version of primary label for 2 h; and (H) 1 μM of the non-biotinylated version of the chase JF dye at 1 μM for 2 h. This last condition H was the same as condition C but with a longer incubation (2 h vs. 0.5 h) to allow independent verification of the chase saturation using 0.5 h incubation. Samples D–G were incubated with a nonbiotinylated chase dye at 1 μM for 0.5 h. Cells were washed and protein lysates were harvested using Bio-Rad SDS-PAGE products as described above. Specifically, cells were lysed using protein lysis buffer as described above, and adding XT Sample Buffer (Bio-Rad, 1610791) and XT Reducing Agent (Bio-Rad, 1610792). Samples were heated at 72 °C for 5 min. Samples were then loaded onto a 4–12% Criterion XT Bis-Tris gel (Bio-Rad, 3450124) and ran at 150 V for approximately 1 h. Gels were then imaged on a Chemidoc MP imager (Bio-Rad) using orange, red, and far-red filters. Bands representing HaloTag ligand were quantified by densitometry using […]
labeling efficiency calculations, bands representing saturating chase dye fluorescence (e.g., JF549) were compared to saturating primary dye fluorescence allowing estimation of the amount of […]
Where F is the fraction of HaloTag protein labeled, Ce is the experimental chase dye fluorescence signal after incubation with pulse biotin-JF-HaloTag ligand, and Cs is the saturating chase dye fluorescence without incubation with a pulse ligand.
Neuro2a cell culture, labeling, lattice light sheet microscopy (LLSM), and confocal microscopy. Neuro2a cells (ATCC, CCL-131) were cultured in Eagle's minimum essential medium (MEM, phenol red-free; Life Technologies) supplemented with 10% (v/v) fetal bovine serum (FBS), and maintained at 37 °C in a humidified 5% (v/v) CO2 environment. Cells were transiently transfected using nucleofection (Lonza) with plasmids constitutively expressing

In a further assay the target is T1, HaloTag protein (Rhodococcus rhodochrous, UniProt P0A3G2, A155T/A167V/A172T/A224E/C128F/C176G/D78G/E160K/E257K/H272N/K175M/K195N/L47V/L88M/N227D/S58T/T264A/Y273L/Y87F).
T1 construct: made in house
Nature of the assay: Absorbance/fluorescence increase upon HaloTag binding. Conditions: HaloTag conjugate vs free ligand. The assay is classed as biochemical. The protocol:
HaloTag protein purification. The bacterial expression vector pRSET-A (Invitrogen) was used to recombinantly express HaloTag (HT7; Promega).1 The soluble 6×His-Tagged HaloTag protein was affinity purified by immobilized metal affinity chromatography (IMAC) on a 5 -mL Fast Flow HiTrap Sepharose 6 column (Cytiva) with a 0–200 mM imidazole elution gradient using an Avant Protein Purification System (ÄKTA). A280 peak fractions were pooled, concentrated by a spin concentrator, and dialyzed 3× into tris-buffered saline (TBS). The amino acid sequence of HaloTag (HT7) expressed from pRSET-A is noted below; the annotated DNA and amino acid sequences […]
Spectroscopy of HaloTag ligands and HaloTag conjugates. […]
± 2 °C). Absorption spectra were recorded on a Cary Model 100 spectrometer (Agilent) using 1-cm path length 1.0-mL quartz microcuvettes from Starna Cells. Fluorescence spectra were recorded on a Cary Eclipse fluorometer (Varian) using 1-cm path length 3.5-mL quartz cuvettes (Starna Cells). […] An aliquot of HaloTag protein (1.5 equiv) was added, and the resulting mixture was incubated until a consistent absorbance signal was observed (60–120 min).
To measure the fold-increase of absorbance upon HaloTag binding, a “no HaloTag” control experiment was performed where an equivalent volume of TBS blank was added in place of the protein. […]

T1 sequence (P0A3G2 other isoform, or with tags, fused parts or gaps with the stated changes): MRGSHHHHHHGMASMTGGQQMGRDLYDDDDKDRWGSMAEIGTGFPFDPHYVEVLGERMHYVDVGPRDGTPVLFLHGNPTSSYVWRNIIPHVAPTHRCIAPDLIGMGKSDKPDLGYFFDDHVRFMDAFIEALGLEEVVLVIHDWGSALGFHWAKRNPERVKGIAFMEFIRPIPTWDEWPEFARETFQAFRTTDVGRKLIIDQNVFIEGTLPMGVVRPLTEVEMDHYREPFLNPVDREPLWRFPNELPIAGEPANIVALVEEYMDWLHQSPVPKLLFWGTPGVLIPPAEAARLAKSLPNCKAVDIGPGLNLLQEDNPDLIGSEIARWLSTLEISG

For `O=C(CCCCC1SCC2NC(=O)NC21)NCCOCCOCCNC(=O)C1C[N+](=c2ccc3c(-c4cc(C(=O)NCCOCCOCCCCCCCl)ccc4C(=O)[O-])c4ccc(N5CCC5)cc4oc-3c2)C1` (stereo not shown) [13HTL, biotin–JF549–HaloTag ligand], the labeling efficiency in assay [1] (100 nM pulse) and in assay [1] (1 µM pulse) was under 3% each time.
With `CC1(C)C2=CC(=[N+]3CC(C(=O)NCCOCCOCCNC(=O)CCCC[C@@H]4SC[C@@H]5NC(=O)N[C@@H]54)C3)C=CC2=C(c2cc(C(=O)NCCOCCOCCCCCCCl)ccc2C(=O)[O-])c2ccc(N3CCC3)cc21` (stereo partly shown) [14HTL, biotin–JF608–HaloTag ligand], the labeling efficiency in assay [1] (100 nM pulse) amounted to 11.3 ± 6.4%; in assay [1] (1 µM pulse), 57.7 ± 9.6%.
`C[Si]1(C)C2=CC(=[N+]3CC(C(=O)NCCOCCOCCNC(=O)CCCC[C@@H]4SC[C@@H]5NC(=O)N[C@@H]54)C3)C=CC2=C(c2cc(C(=O)NCCOCCOCCCCCCCl)ccc2C(=O)[O-])c2ccc(N3CCC3)cc21` (stereo partly shown) [15HTL, biotin–JF646–HaloTag ligand]: the “fluorogenicity upon HaloTag binding” value on HaloTag protein worked out at 2.9 fold. Besides, the labeling efficiency in assay [1] (100 nM pulse) stood at 13.6 ± 3.7%; in assay [1] (1 µM pulse), 61.7 ± 6.8%.
For `C[Si]1(C)C2=CC(=[N+]3CC(F)(C(=O)NCCOCCOCCNC(=O)CCCC[C@@H]4SC[C@@H]5NC(=O)N[C@@H]54)C3)C=CC2=C(c2cc(C(=O)NCCOCCOCCCCCCCl)ccc2C(=O)[O-])c2ccc(N3CC(F)C3)cc21` (stereo partly shown) [16HTL, biotin–JF635–HaloTag ligand], on HaloTag protein, the “fluorogenicity upon HaloTag binding” value stood at 17.6 fold. For the same compound, the values for the labeling efficiency in assay [1] (100 nM pulse) and in assay [1] (1 µM pulse) were 18.0 ± 4.9% and 69.0 ± 4.2%, respectively.

Source of the values: publication PMC12595484, “Optimizing multifunctional fluorescent ligands for intracellular labeling” (Proceedings of the National Academy of Sciences of the …, 2025).
